Measured values taken from patent publication US11786447B2, “Conditioner composition comprising a chelant” (The Procter & Gamble Company, priority 2016, dated 2023).

Assay: Measurement of copper on hair after shampoo/rinse-off conditioner wash cycles (ICP-OES)
Details: picolinic acid in the rinse-off conditioner; after 20 clarifying shampoo/rinse-off conditioner cycles
Method: All testing are performed on colored hair switches (see Method of Measurement of copper on hair below) weighing approximately 4.0 grams and having a length of approximately 6 inches. The hair switches are commercially available from IHIP (International Hair Importers). Three hair switches per shampoo composition are used. An amount of […] of shampoo is spread via a syringe onto separate hair switch. That is, the dosage is 0.10 g of shampoo per g of hair. Each application consists of adding shampoo to the hair, milking for 30 seconds followed by rinsing for 30 seconds. Shampoo is then reapplied (0.1 g/g), milked for 30 seconds and rinsed for 30 seconds. Excess water is squeezed from the hair switches and left to air dry or treated with a rinse-off conditioner and/or a leave-on treatment composition. This protocol is repeated for a number of times/cycles (as indicated in the tables below, which describe the details of hair treatments).
All testing are performed on colored hair switches (see Method of Measurement of copper on hair below) weighing approximately 4.0 grams and having a length of approximately 6 inches. […]
Samples of 100 mg of hair were digested overnight with 2 ml of high purity concentrated nitric acid. […] Copper content of the hair switches was determined by inductively coupled plasma atomic spectroscopy (ICP-OES)). For each leg, 3 different samples were analyzed. […]

## O=C(O)c1ccccn1 [picolinic acid]
  Removal of copper from hair compared to clarifying shampoo/control rinse-off conditioner: effective removal of copper from hair
